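Values below derive from 48-hour exposures of cells grown in 96-well plates, with endpoints linearly interpolated between the two concentrations bracketing the appropriate inhibition level. GI50: concentration for 50% inhibition of growth. TGI: concentration producing complete growth inhibition.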
Columns and labels:
Assay in all cases: DTP human tumour cell line panel, 48 h
HCT-15 colon = system: HCT-15 colon
HOP-92 NSCLC = system: HOP-92 NSCLC
MOLT-4 leukemia = system: MOLT-4 leukemia
NCI-H23 lung = system: NCI-H23 lung
NCI-H522 lung = system: NCI-H522 lung
OVCAR-3 ovarian = system: OVCAR-3 ovarian
OVCAR-5 ovarian = system: OVCAR-5 ovarian
RXF 393 renal = system: RXF 393 renal
SF-539 CNS = system: SF-539 CNS
SK-MEL-28 melanoma = system: SK-MEL-28 melanoma
SN12C renal = system: SN12C renal
U251 CNS = system: U251 CNS
ACHN renal = system: ACHN renal
MDA-MB-435 = system: MDA-MB-435
786-0 renal = system: 786-0 renal

Compound | TGI (HCT-15 colon) | TGI (HOP-92 NSCLC) | TGI (MOLT-4 leukemia) | TGI (NCI-H23 lung) | TGI (NCI-H522 lung) | TGI (OVCAR-3 ovarian) | TGI (OVCAR-5 ovarian) | TGI (RXF 393 renal) | TGI (SF-539 CNS) | TGI (SK-MEL-28 melanoma) | TGI (SN12C renal) | TGI (U251 CNS) | TGI (ACHN renal) | TGI (MDA-MB-435) | TGI (786-0 renal) | GI50 (HOP-92 NSCLC) | GI50 (MOLT-4 leukemia) | GI50 (OVCAR-5 ovarian) | GI50 (SF-539 CNS)
NCCCCCC(CCN)SCC1OC(n2cnc3c(N)ncnc32)C(O)C1O (stereo unspecified) | > 1500 µM | > 1240 µM | > 1500 µM | > 1500 µM | > 1500 µM | > 1500 µM | > 1500 µM | > 1500 µM | > 1240 µM | > 1500 µM | > 1180 µM | > 1500 µM | – | – | – | – | – | – | –
COC(=O)/C=C1\SC2(OC1=Nc1ccccc1)C1CC3CC(C1)CC2C3 (stereo unspecified) | > 100 µM | > 100 µM | > 100 µM | – | > 100 µM | > 100 µM | > 100 µM | > 100 µM | > 100 µM | > 100 µM | > 100 µM | > 100 µM | > 100 µM | > 100 µM | – | – | – | – | –
Nc1ccccc1N | > 100 µM | > 100 µM | > 100 µM | > 100 µM | 47.5 µM | > 100 µM | > 100 µM | > 100 µM | > 100 µM | > 100 µM | > 100 µM | > 100 µM | > 100 µM | – | > 100 µM | – | – | – | –
CCOC(=O)CC1=N/C(=N/C(=N)N[N+](=O)[O-])SC1 | > 100 µM | > 100 µM | – | > 100 µM | > 100 µM | > 100 µM | > 100 µM | > 100 µM | > 100 µM | > 100 µM | > 100 µM | > 100 µM | > 100 µM | – | > 100 µM | – | – | – | –
O=C(O)c1ccccc1CN1CCCC(C(=O)O)C1 (stereo unspecified) | > 100 µM | > 100 µM | > 100 µM | > 100 µM | > 100 µM | > 100 µM | > 100 µM | > 100 µM | > 100 µM | > 100 µM | > 100 µM | > 100 µM | > 100 µM | > 100 µM | > 100 µM | – | – | – | –
CCOc1ccc(/C=C2\N=C(c3ccccc3)OC2=O)cc1 | > 100 µM | > 100 µM | > 100 µM | > 100 µM | > 100 µM | > 100 µM | > 100 µM | > 100 µM | > 100 µM | > 100 µM | – | > 100 µM | > 100 µM | > 100 µM | – | – | – | – | –
N=c1sc2ccccc2n1CCS (tested in a mixture with another compound) | 34.6 µM | 38.4 µM | 8.45 µM | 32.3 µM | 45.4 µM | 40.9 µM | 57.3 µM | 48.5 µM | 19.3 µM | 41.4 µM | 59.4 µM | 29.1 µM | 31.7 µM | 36.3 µM | 35.8 µM | – | – | – | –
COc1cccc2c1C(=O)c1c(O)c3c(c(O)c1C2=O)C[C@@](O)(C(=O)CO)CC3OC1CC(N(C)CCOCC(OC(C)=O)OC(C)=O)C(O)C(C)O1 (stereo partly specified) | – | > 0.01 µM | > 0.01 µM | > 0.01 µM | > 0.01 µM | > 0.01 µM | > 0.01 µM | > 0.01 µM | > 0.01 µM | > 0.01 µM | > 0.01 µM | > 0.01 µM | > 0.01 µM | – | > 0.01 µM | – | – | – | –
NC(Cc1ccc(CP(=O)(O)O)cc1)C(=O)O (stereo unspecified) | > 100 µM | > 100 µM | > 100 µM | > 100 µM | > 100 µM | > 100 µM | > 100 µM | > 100 µM | > 100 µM | > 100 µM | > 100 µM | > 100 µM | > 100 µM | > 100 µM | – | – | – | – | –
Cc1cccc2cc(/C=C/C(=O)/C=C/c3ccc(Cl)cc3)c(=O)[nH]c12 | – | > 100 µM | > 100 µM | – | – | – | > 100 µM | – | > 100 µM | – | – | – | – | – | – | > 100 µM | 5.69 µM | > 100 µM | > 100 µM
CN1C2CCC1/C(=C/c1cccc3c1OCO3)C(=O)/C2=C\c1cccc2c1OCO2 | > 100 µM | 98.7 µM | > 100 µM | > 100 µM | – | > 100 µM | > 100 µM | 68 µM | – | > 100 µM | > 100 µM | 63.4 µM | > 100 µM | – | – | – | – | – | –
CC(=O)CCC#Cc1ccccc1C(=O)C(C)=[N+]=[N-] | > 100 µM | > 100 µM | 85.4 µM | > 100 µM | – | > 100 µM | > 100 µM | 97.5 µM | > 100 µM | > 100 µM | > 100 µM | > 100 µM | > 100 µM | – | – | – | – | – | –
O=C(O)C(Cc1cc(I)c(O)c(I)c1)C1CCCCC1 (stereo unspecified) | > 100 µM | > 100 µM | 76.2 µM | 65.5 µM | > 100 µM | 38.5 µM | > 100 µM | > 100 µM | – | > 100 µM | > 100 µM | 54.6 µM | > 100 µM | > 100 µM | > 100 µM | – | – | – | –
Fc1ccc(Nc2nc(Cl)c3[nH]cnc3n2)cc1Cl | > 100 µM | > 100 µM | > 100 µM | > 100 µM | > 100 µM | > 100 µM | > 100 µM | – | > 100 µM | > 100 µM | > 100 µM | > 100 µM | > 100 µM | > 100 µM | > 100 µM | – | – | – | –
